These are literature values, as cited in publication PMC8477420 (ChemMedChem, 2020).

The subject of one data set is OCI-AML-2 cells. The note with it: monotherapy.
The next data set has as its system OCI-AML-3 cells. Particulars: monotherapy.
The subject of a further data set is MOLM-13 cells. Particulars: monotherapy.

Consider `COc1ccc(C2=N[C@@H](c3ccc(Cl)cc3)[C@@H](c3ccc(Cl)cc3)N2C(=O)N2CCNC(=O)C2)c(OC(C)C)c1` [Nutlin-3a], for which the “inhibition of Bcl-2” value in the data set on Bcl-2 is listed as “low micromolar inhibition”.

On to `COc1ncc(-c2nc3c(n2C(C)C)[C@H](c2ccc(Cl)cc2)N(c2cc(Cl)cn(C)c2=O)C3=O)c(OC)n1` [HDM201], for which the viability is 80% in the data set with OCI-AML-2 cells, “no reduction” in the data set on OCI-AML-3 cells and 80% with MOLM-13 cells.

Take `Cc1c(-c2c(-c3ccc(F)o3)sc3ncnc(O[C@H](Cc4ccccc4OCc4ccnn4CC(F)(F)F)C(=O)O)c23)ccc(OCCN2CCN(C)CC2)c1Cl` [Compound S63845]: the viability is 95% in the data set on OCI-AML-2 cells, 60–70% in the data set on OCI-AML-3 cells and 60–70% with MOLM-13 cells.

One may read the viability as a per cent measure of how many cells are alive, often set against a control.
